The source of these data is the OligoGym collection.

After the bases stand the sugars from the 5' end (letter, count) and the backbone: PS all phosphorothioate, else s phosphorothioate and o phosphodiester by linkage. Methylation of C is not given here. e = 2'-O-(2-methoxyethyl) (MOE); k = constrained ethyl (cEt); d = 2'-deoxy (DNA); m = 2'-O-methyl

The data set addresses HSD17B13. As to conditions: ASO, HepaRG.

Where the note is “1 µM”, AAAAACTTCACCAACG (sugars k3 d10 k3, PS) showed a target mRNA inhibition of 8%.
As for AAAAAGCTCTATTGGT (sugars k3 d10 k3, PS), for the setting “1 µM”, the target mRNA inhibition was 0%.
On the same count and under the same terms, to AAAAATCGCTGCTTAG (sugars k3 d10 k3, PS) belongs 25%; to AAAAGGCCCAAGGCTT (sugars k3 d10 k3, PS), 30%; to AAAAGTGTCCTCGATC (sugars k3 d10 k3, PS), 17%.
The same measure, in the same setting: as for AAAATATGTCCAGGTT (sugars k3 d10 k3, PS), the figure is 74%; as for “AAAAUAGAGTCGGTCA (sugars k3 d1 m1 d8 k3, PS)”, 62%.
Turning to “AAAGACTTTGAGACTC (sugars k3 d1 m1 d8 k3, PS)”, the target mRNA inhibition is 14% (0.02 µM); 28% (0.078 µM); 42% (0.313 µM); 76% (1 µM); 66% (1.25 µM); 77% (5 µM).
As for AAAGGTGGGATAAACT (sugars k3 d10 k3, PS), the target mRNA inhibition (1 µM) worked out at 33%.
The same measure, in the same setting: to “AAATAGAGTCGGTCAC (sugars k3 d9 k3 e1, PS)” belongs 48%; to “AAATAGAGTCGGTCAC (sugars kkdddddddddkekek, PS)”, 50%.
On the same count and under the same terms, as for “AAATATGTCCAGGTTG (sugars kkdddddddddkekek, PS)”, the figure is 61%; as for AAATCATGGTGTGGAG (sugars k3 d10 k3, PS), 1%.
AAATTATACTTTTCCG (sugars k3 d10 k3, PS): the target mRNA inhibition is, setting by setting: (0.02 µM) 0%; (0.078 µM) 38%; (0.313 µM) 66%; (1 µM) 85%; (1.25 µM) 88%; (5 µM) 92%.
Sequence AAATTGATACACCAAT (sugars k3 d10 k3, PS) showed a target mRNA inhibition (1 µM) of 14%.
The same measure, in the same setting: as for AAATTGTCTAAACATC (sugars k3 d10 k3, PS), the figure is 24%; as for AAATTTCAGTACCCAG (sugars k3 d10 k3, PS), 46%.
Same read-out and setting: as for AACAACCCAGCCTCGG (sugars k3 d10 k3, PS), the figure is 20%.
On the same count and under the same terms, as for AACAATATGGGATGAG (sugars k3 d10 k3, PS), the figure is 39%.
The sequence “AACAGTCTTAAACCTT (sugars k3 d9 k3 e1, PS)” had a target mRNA inhibition (1 µM) of 57%.
Take AACCAATATGCTCTGT (sugars k3 d10 k3, PS): under “1 µM”, the target mRNA inhibition amounted to 51%.
The same measure, in the same setting: as for AACCCAGTATTCACAA (sugars k3 d10 k3, PS), the figure is 0%.
As to AACTAAACATGACAGC (sugars k3 d10 k3, PS), the target mRNA inhibition (0.02 µM) was 8%; the target mRNA inhibition (0.078 µM) was 26%; the target mRNA inhibition (0.313 µM) was found to be 40%; the target mRNA inhibition (1 µM) was determined as 72%; the target mRNA inhibition (1.25 µM) is 65%; the target mRNA inhibition (5 µM) turned out to be 85%.
Regarding AACTAACCTGACACAT (sugars k3 d10 k3, PS), where the note is “1 µM”, the target mRNA inhibition is 20%.
On the same count and under the same terms, to AACTACTTCAGTTAGC (sugars k3 d10 k3, PS) belongs 53%; to AACTGAAACGATCCTC (sugars k3 d10 k3, PS), 52%; to “AACTTCATAGTGGACT (sugars k3 d9 k3 e1, PS)”, 70%.
The same measure, in the same setting: as for AACTTCATAGTGGACT (sugars k3 d10 k3, PS), the figure is 68%.
On the same count and under the same terms, as for AACTTTTAGTCAGGTA (sugars k3 d10 k3, PS), the figure is 49%; as for “AACTUCATAGTGGACT (sugars k3 d1 m1 d8 k3, PS)”, 38%; as for “AAGACATTCTAGCCTG (sugars k3 d1 m1 d8 k3, PS)”, 54%.
“AAGACATTCTAGCCTG (sugars kkdddddddddkekek, PS)”: where the note is “1 µM”, the target mRNA inhibition was found to be 25%.
On the same count and under the same terms, to AAGAGGCTAGGGAAAT (sugars k3 d10 k3, PS) belongs 66%; to AAGAGTCAGTATCCTC (sugars k3 d10 k3, PS), 63%.
Take AAGATAAGTAGATGGT (sugars k3 d10 k3, PS): the target mRNA inhibition was 7% (0.02 µM); 26% (0.078 µM); 58% (0.313 µM); 79% (1 µM); 77% (1.25 µM); 89% (5 µM).
AAGATATTGATATACG (sugars k3 d10 k3, PS) returned a target mRNA inhibition (1 µM) of 45%.
Still for that read-out and setting: as for “AAGAUACCCAGGTTGC (sugars k3 d1 m1 d8 k3, PS)”, the figure is 37%; as for AAGCAGAATTGTGAAC (sugars k3 d10 k3, PS), 18%; as for AAGGAGCTAGATACTC (sugars k3 d10 k3, PS), 19%.
On the same count and under the same terms, to AAGTAAGGTAAAGTCT (sugars k3 d10 k3, PS) belongs 20%.
The same measure, in the same setting: as for AAGTAGGAGTAGATGA (sugars k3 d10 k3, PS), the figure is 0%.
For the setting “1 µM”, AAGTCCAGAATAGAGT (sugars k3 d10 k3, PS) had a target mRNA inhibition of 60%.
On the same count and under the same terms, to AAGTGCTTTTGTGATC (sugars k3 d10 k3, PS) belongs 41%.
For the setting “1 µM”, AAGTTAGCCCCCAGGA (sugars k3 d10 k3, PS) came in with a target mRNA inhibition of 36%.
Same read-out and setting: to “AAGTUAGCCCCCAGGA (sugars k3 d1 m1 d8 k3, PS)” belongs 0%; to AATACATTAGCAAGCT (sugars k3 d10 k3, PS), 45%; to AATACCCTTGGTGGAG (sugars k3 d10 k3, PS), 16%.
Same read-out and setting: as for AATAGAGTCGGTCACC (sugars k3 d10 k3, PS), the figure is 58%; as for AATAGCCAGTACAGTT (sugars k3 d10 k3, PS), 46%; as for “AATAGCCAGTACAGTT (sugars kkdddddddddkekek, PS)”, 36%.
The same measure, in the same setting: as for AATAGGAGAGTCTTTC (sugars k3 d10 k3, PS), the figure is 47%; as for AATATAGAGGGTCCAC (sugars k3 d10 k3, PS), 7%.
Consider AATATATACCTGTTGC (sugars k3 d10 k3, PS), for which the target mRNA inhibition (1 µM) stood at 38%.
Still for that read-out and setting: as for “AATATGGGATGAGGTA (sugars kkdddddddddkekek, PS)”, the figure is 52%.
The same measure, in the same setting: to “AATAUGGGATGAGGTA (sugars k3 d1 m1 d8 k3, PS)” belongs 38%; to “AATAUTGAGGCACTGG (sugars k3 d1 m1 d8 k3, PS)”, 48%.
Still for that read-out and setting: as for “AATCACAAGTAAGGTA (sugars k3 d1 m1 d8 k3, PS)”, the figure is 31%.
Sequence “AATCACAAGTAAGGTA (sugars k3 d9 k3 e1, PS)” gave a target mRNA inhibition (1 µM) of 63%.
On the same count and under the same terms, to AATCACAAGTAAGGTA (sugars k3 d10 k3, PS) belongs 52%; to AATCATGGTGTGGAGG (sugars k3 d10 k3, PS), 11%; to “AATCCCAACCAAACTT (sugars k3 d9 k3 e1, PS)”, 13%.
Same read-out and setting: as for AATTAACATTCGGCTA (sugars k3 d10 k3, PS), the figure is 38%; as for AATTATACTTTTCCGT (sugars k3 d10 k3, PS), 66%.
As to AATTATGCCTTGTGGC (sugars k3 d10 k3, PS), under “1 µM”, the target mRNA inhibition came to 19%.
Same read-out and setting: as for AATTCACTATCTCCCT (sugars k3 d10 k3, PS), the figure is 10%; as for AATTCTAAACTAGTGG (sugars k3 d10 k3, PS), 31%; as for AATTTTCGGGTTCTTA (sugars k3 d10 k3, PS), 35%.
Regarding ACAAAATCATGGTGTG (sugars k3 d10 k3, PS), the target mRNA inhibition (1 µM) was 26%.
The same measure, in the same setting: to ACAAGAGTTCTTGCAG (sugars k3 d10 k3, PS) belongs 29%; to ACAAGTGACAGCATTG (sugars k3 d10 k3, PS), 44%; to “ACAATATGGGATGAGG (sugars kkdddddddddkekek, PS)”, 51%.
As for ACAATTAACATTCGGC (sugars k3 d10 k3, PS), the target mRNA inhibition reads like this: (0.02 µM) 13%; (0.078 µM) 15%; (0.313 µM) 43%; (1 µM) 77%; (1.25 µM) 62%; (5 µM) 79%.
In the case of ACAATTTTTCCAATCC (sugars k3 d10 k3, PS), the target mRNA inhibition by setting is: (0.02 µM) 9%; (0.078 µM) 37%; (0.313 µM) 62%; (1 µM) 86%; (1.25 µM) 76%; (5 µM) 93%.
ACACCGCGCTTATTAA (sugars k3 d10 k3, PS) had a target mRNA inhibition (1 µM) of 7%.
“ACACTAATATTGAGGC (sugars kkdddddddddkekek, PS)”: the target mRNA inhibition (1 µM) was found to be 55%.
As to “ACAGATTGGAATGCTA (sugars kkdddddddddkekek, PS)”, the target mRNA inhibition (1 µM) stood at 49%.
Turning to ACAGTAAAATTATGCC (sugars k3 d10 k3, PS), the target mRNA inhibition by setting is: (0.02 µM) 0%; (0.078 µM) 0%; (0.313 µM) 4%; (1 µM) 73%; (1.25 µM) 50%; (5 µM) 68%.
As for “ACATCTCTGGGACCAA (sugars k3 d1 m1 d8 k3, PS)”, under “1 µM”, the target mRNA inhibition was 68%.
On the same count and under the same terms, to “ACATCTCTGGGACCAA (sugars k3 d9 k3 e1, PS)” belongs 65%; to ACATCTCTGGGACCAA (sugars k3 d10 k3, PS), 78%.
Still for that read-out and setting: as for “ACATTAGCAAGCTAAG (sugars k3 d9 k3 e1, PS)”, the figure is 41%.
